In paper PMC7880690, “Chemical genetics and proteome-wide site mapping reveal cysteine MARylation by PARP-7 on immune-relevant protein targets” (eLife, 2021):

How the values were obtained:
[1] = molecular target: T1, IG-PARP-7 (I631G PARP-7) (Homo sapiens, UniProt Q7Z3E1, I631G); assay: Labeling by orthogonal NAD+ analogs in HEK 293T lysates expressing GFP-IG-PARP-7 (click with biotin-azide, Streptavidin-HRP); type: biochemical; settings: HEK 293 T cell lysates, 100 µM NAD+ analog
T1 construct: expressed in transfected cells; host or cells: HEK 293T (lysate)
Text: Identifying the protein targets of PARP-7 is a critical first step toward unraveling its function in cells. In previous work we have developed an engineered enzyme—modified substrate strategy for identifying relevant targets of individual PARP family members ([Carter-O'Connell et al., 2014]; [Carter-O'Connell et al., 2016]; [Carter-O'Connell and Cohen, 2015]; [Carter-O'Connell et al., 2018]). This chemical genetic (CG) method uses engineered PARPs and an orthogonal NAD^+ analogue that contains a clickable handle (e.g. an alkyne) that is located at the N-6 position of the adenine ring (5-Bn-6-a-NAD^+). […] Importantly, 5-Bn-6-a-NAD^+ is not used by wild-type (WT) PARPs and in this way is orthogonal to native NAD^+. […] We therefore sought a new orthogonal NAD^+ analogue that would serve as an efficient substrate for floor position engineered PARP-7, I631G PARP-7 (IG-PARP-7) (Figure 1a).
Figure 1. A chemical genetic strategy for identifying the direct MARylation targets of PARP-7. (a) Schematic of chemical genetic approach for identifying direct targets of PARP-7. (b) Crystal structure of human PARP1 bound to the non-hydrolyzable NAD^+ analog benzamide adenine dinucleotide (BAD). PDB: 6bhv. […] Following copper-catalyzed click chemistry with biotin-azide, proteins were resolved by SDS-PAGE and biotinylated proteins were detected by Western blot detection using Streptavidin-HRP. […]

[2] = molecular target: T2, PARP8FL (Homo sapiens, UniProt Q8N3A8); assay: ADP-ribosylation plate assay, PARP8FL
T2 sequence (Q8N3A8 1-854): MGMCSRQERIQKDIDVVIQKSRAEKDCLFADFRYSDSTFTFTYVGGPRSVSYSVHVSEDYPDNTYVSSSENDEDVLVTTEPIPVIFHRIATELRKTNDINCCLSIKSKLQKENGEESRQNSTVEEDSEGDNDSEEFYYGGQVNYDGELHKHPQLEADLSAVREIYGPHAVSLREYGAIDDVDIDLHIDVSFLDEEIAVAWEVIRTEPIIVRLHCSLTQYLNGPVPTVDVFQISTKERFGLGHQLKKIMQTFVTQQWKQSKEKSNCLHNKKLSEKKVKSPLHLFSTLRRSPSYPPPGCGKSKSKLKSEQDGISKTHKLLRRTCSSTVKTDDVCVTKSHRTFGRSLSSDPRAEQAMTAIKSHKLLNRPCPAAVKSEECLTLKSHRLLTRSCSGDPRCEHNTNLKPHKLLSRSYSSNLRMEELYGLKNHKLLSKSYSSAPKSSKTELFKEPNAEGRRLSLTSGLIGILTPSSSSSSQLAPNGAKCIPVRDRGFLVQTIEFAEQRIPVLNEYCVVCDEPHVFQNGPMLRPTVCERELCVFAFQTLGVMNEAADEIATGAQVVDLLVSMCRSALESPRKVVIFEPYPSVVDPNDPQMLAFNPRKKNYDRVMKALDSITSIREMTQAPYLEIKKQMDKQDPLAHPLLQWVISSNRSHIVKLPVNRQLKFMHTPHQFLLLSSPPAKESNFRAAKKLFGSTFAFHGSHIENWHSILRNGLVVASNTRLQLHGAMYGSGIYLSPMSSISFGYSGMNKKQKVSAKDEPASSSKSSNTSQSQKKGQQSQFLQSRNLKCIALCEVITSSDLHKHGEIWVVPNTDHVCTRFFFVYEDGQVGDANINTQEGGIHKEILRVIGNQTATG

T1 sequence (Q7Z3E1 whole entry I631G): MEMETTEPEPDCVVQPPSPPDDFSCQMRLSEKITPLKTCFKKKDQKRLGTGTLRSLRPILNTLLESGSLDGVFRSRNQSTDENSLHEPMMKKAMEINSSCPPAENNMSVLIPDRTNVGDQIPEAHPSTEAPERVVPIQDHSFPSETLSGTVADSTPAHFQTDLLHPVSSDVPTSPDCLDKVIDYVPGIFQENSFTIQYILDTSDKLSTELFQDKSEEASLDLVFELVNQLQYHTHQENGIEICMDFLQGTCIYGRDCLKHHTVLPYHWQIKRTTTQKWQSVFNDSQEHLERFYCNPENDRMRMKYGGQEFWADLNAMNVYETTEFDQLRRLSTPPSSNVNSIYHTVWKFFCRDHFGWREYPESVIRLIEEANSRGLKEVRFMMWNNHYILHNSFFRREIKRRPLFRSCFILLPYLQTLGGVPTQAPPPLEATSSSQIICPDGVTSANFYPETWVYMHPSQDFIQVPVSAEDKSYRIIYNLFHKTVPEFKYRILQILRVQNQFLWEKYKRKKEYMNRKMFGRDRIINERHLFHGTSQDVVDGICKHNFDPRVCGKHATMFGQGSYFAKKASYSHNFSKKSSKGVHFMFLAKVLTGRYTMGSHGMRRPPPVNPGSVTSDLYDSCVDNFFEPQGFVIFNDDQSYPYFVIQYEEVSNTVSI

Structure (SMILES)	substrate for floor position engineered PARP-7 (IG-PARP-7) [1]	IC50 [2]
C#Cc1nc(N)c2ncn(C3OC(COP(=O)(O)OP(=O)([O-])OCC4OC([n+]5cc(Cc6ccccc6)cc(C(N)=O)c5)C(O)C4O)C(O)C3O)c2n1 (centres unmarked) [5-Bn-2-e-NAD^+, 5-benzyl-2-ethynyl-NAD^+]	much better substrate	
N#Cc1ccc(N2CCN(C(=O)c3cc(Cc4n[nH]c(=O)c5ccccc45)ccc3F)CC2)nc1 [Phthal01, 6-(4-(2-fluoro-5-((4-oxo-3,4-dihydrophthalazin-1-yl)methyl)benzoyl)piperazin-1-yl)nicotinonitrile]		4.7 ± 1 µM
